Measurements published in patent US20100119479A1, “THERAPEUTIC ANTIVIRAL PEPTIDES” (INTERMUNE, INC., priority 2008, published 2010).
pEC50, pIC50: −log10 of the molar value.

Assays:
[1] = target: T1, full-length NS3/NS4A-2 (HCV NS3 protease) (Hepatitis C virus genotype 1b, UniProt Q9WMX2); experiment: NS3 Inhibition Assay (NS3-NS4 protease assay, RETS1 substrate); assay type: biochemical; settings: NS3/NS4A-2 protease
T1 construct: Recombinant E. coli or Baculovirus full-length NS3; host or cells: E. coli or baculovirus (BV) expression
Protocol: NS3 Complex Formation with NS4A-2.
Recombinant E. coli or Baculovirus full-length NS3 was diluted to 3.33 μM with assay buffer and transferred material to an eppendorf tube and placed in a water bath in a 4° C. refrigerator. The appropriate amount of NS4A-2 diluted to […] in assay buffer was added to equal the volume of NS3 above (conversion factor—3.8 mg/272 μL assay buffer). The material was transferred to an eppendorf tube and placed in water bath in a 4° C. refrigerator.
After equilibration to 4° C., equal volumes of NS3 and NS4A-2 solutions were combined in an eppendorf tube, mix gently with a manual pipettor, and incubate mixture for 15 minutes in the 4° C. water bath. Final concentrations in the mixture are 1.67 μM NS3, 4.15 mM NS4A-2 (2485-fold molar excess NS4A-2).
After 15 minutes at 4° C., the NS3/NS4A-2 eppendorf tube was removed and place it in a room temperature water bath for 10 minutes. NS3/NS4A-2 was aliquoted at appropriate volumes and store at −80° C. (E. coli NS3 run at 2 nM in assay, aliquot at 25 μL. BV NS3 run at 3 nM in assay, aliquot at 30 μL).
Step a. Sample compounds were dissolved to 10 mM in DMSO then diluted to 2.5 mM (1:4) in DMSO. Typically, compounds were added to an assay plate at 2.5 mM concentration, yielding upon dilution a starting concentration of 50 microM in the assay inhibition curve. Compounds were serial diluted in assay buffer to provide test solutions at lower concentrations.
Step b. The E. coli. NS3/NS4A-2 was diluted to 4 nM NS3 (1:417.5 of 1.67 μM stock−18 μL1.67 μM stock+7497 μL assay buffer). The BV NS3/NS4A-2 was diluted to 6 nM NS3 (1:278.3 of 1.67 μM stock−24 μL1.67 μM stock+6655 μL assay buffer).
Step c. Using the manual multichannel pipettor, and being careful not to introduce bubbles into the plate, 50 μL assay buffer were added to wells A01-H01 of a black Costar 96-well polypropylene storage plate.
Step d. Using the manual multichannel pipettor, and being careful not to introduce bubbles into the plate, 50 μL of diluted NS3/NS4A-2 from Step b were added to wells A02-H12 of the plate in Step c.
Step e. Using the manual multichannel pipettor, and being careful not to introduce bubbles into the plate, 25 μL of the wells in drug dilution plate in Step a were transferred to corresponding wells in assay plate in Step d. The tips on the multichannel pipettor were changed for each row of compounds transferred.
Step f Using the manual multichannel pipettor, and being careful not to introduce bubbles into the plate, the contentes of the wells from the assay plate in Step e were mixed by aspirating and dispensing 35 μL of the 75 μL in each well five times. The tips on multichannel pipettor were changed for each row of wells mixed.
Step g. The plate was covered with a polystyrene plate lid, and the plate from Step f containing NS3 protease and sample compounds was pre-incubated 10 minutes at room temperature.
While plate from Step g is pre-incubating, the RETS1 substrate was diluted in a 15 mL polypropylene centrifuge tube. The RETS1 substrate was diluted to 8 μM (1:80.75 of 646 μM stock—65 μL 646 μM stock+5184 μL assay buffer).
After the plate in Step g was done pre-incubating, and using the manual multichannel, 25 μL of substrate were added to all wells on the plate. The contents of the wells of the plate were quickly mixed, as in Step f, mixing 65 μL of the 100 μL in the wells.
The plate was read in kinetic mode on the Molecular Devices SpectraMax Gemini XS plate reader. Reader settings: Read time: 30 minutes, Interval: 36 seconds, Reads: 51, Excitation λ: 335 nm, Emission λ: 495 nm, cutoff: 475 nm, Automix: off, Calibrate: once, PMT: high, Reads/well: 6, Vmax pts: 21 or 28/51 depending on length of linearity of reaction
IC50s are determined using a four parameter curve fit equation, and converted to Ki's using the following Km's: […]
Full-length E. coli NS3−2.03 μM
Full-length BV NS3−1.74 μM
where Ki=IC50/(1+[S]/Km))

[2] = tested on: HCV sub-genomic replicon, GS4.3 (HuH-7 hepatoma cells); experiment: Quantitation by ELISA of NPTII in the HCV sub-genomic replicon, GS4.3; assay type: cell-based; settings: Hepatitis C virus, GS4.3 replicon cells, 72 h incubation
Excerpt: Quantitation by ELISA of the Selectable Marker Protein, Neomycin Phosphotransferase II (NPTII) in the HCV Sub-Genomic Replicon, GS4.3
The HCV sub-genomic replicon (1377/NS3-3′, accession No. AJ242652), stably maintained in HuH-7 hepatoma cells, was created by Lohmann et al. Science 285: 110-113 (1999). The replicon-containing cell culture, designated GS4.3, was obtained from Dr. Christoph Seeger of the Institute for Cancer Research, Fox Chase Cancer Center, Philadelphia, Pa.
GS4.3 cells were maintained at 37° C., 5% CO2, in DMEM (Gibco 11965-092) supplemented with L-glutamine 200 mM (100×) (Gibco25030-081), non-essential amino acids (NEAA)(Biowhittaker 13-114E), heat-inactivated (HI) Fetal Bovine Serum(FBS)(Hyclone SH3007.03) and 750 μg/mL geneticin (G418)(Gibco 10131-035). Cells were sub-divided 1:3 or 4 every 2-3 days.
24 h prior to the assay, GS4.3 cells were collected, counted, and plated in 96-well plates (Costar 3585) at 7500 cells/well in […] standard maintenance medium (above) and incubated in the conditions above. To initiate the assay, culture medium was removed, cells were washed once with PBS (Gibco 10010-023) and 90 μl Assay Medium (DMEM, L-glutamine, NEAA, 10% HI FBS, no G418) was added. Inhibitors were made as a 10× stock in Assay Medium, (3-fold dilutions from 10 μM to […] final concentration, final DMSO concentration 1%), […] were added to duplicate wells, plates were rocked to mix, and incubated as above for 72 h.
An NPTII Elisa kit was obtained from AGDIA, Inc. (Compound direct ELISA test system for Neomycin Phosphotransferase II, PSP 73000/4800). Manufacturer's instructions were followed, with some modifications. 10×PEB-1 lysis buffer was made up to include 500 μM PMSF (Sigma P7626, 50 mM stock in isopropanol). After 72 h incubation, cells were washed once with PBS and […] PEB-1 with PMSF was added per well. Plates were agitated vigorously for 15 minutes, room temperature, then frozen at −70° C. Plates were thawed, lysates were mixed thoroughly, and 100 μl were applied to an NPTII Elisa plate. A standard curve was made. Lysate from DMSO-treated control cells was pooled, serially diluted with PEB-1 with PMSF, and applied to duplicate wells of the ELISA plate, in a range of initial lysate amount of 150 μL-2.5 μL. In addition, 100 μL buffer alone was applied in duplicate as a blank. Plates were sealed and gently agitated at room temperature for 2 h. Following capture incubation, the plates were washed 5×300 μL with PBS-T (0.5% Tween-20, PBS-T was supplied in the ELISA kit). For detection, a 1× dilution of enzyme conjugate diluent MRS-2 (5×) was made in PBS-T, into which 1:100 dilutions of enzyme conjugates A and B were added, as per instructions. Plates were resealed, and incubated with agitation, covered, room temperature, for 2 h. The washing was then repeated and 100 μL, of room temperature TMB substrate was added. After approximately 30 minutes incubation (room temperature, agitation, covered), the reaction was stopped with 50 μL, 3M sulfuric acid. Plates were read at 450 nm on a Molecular Devices Versamax plate reader.
Inhibitor effect was expressed as a percentage of DMSO-treated control signal, and inhibition curves were calculated using a 4-parameter equation: y=A+((B−A)/(1+((C/x)̂D))), where C is half-maximal activity or EC50.

T1 sequence (Q9WMX2 1027-1657): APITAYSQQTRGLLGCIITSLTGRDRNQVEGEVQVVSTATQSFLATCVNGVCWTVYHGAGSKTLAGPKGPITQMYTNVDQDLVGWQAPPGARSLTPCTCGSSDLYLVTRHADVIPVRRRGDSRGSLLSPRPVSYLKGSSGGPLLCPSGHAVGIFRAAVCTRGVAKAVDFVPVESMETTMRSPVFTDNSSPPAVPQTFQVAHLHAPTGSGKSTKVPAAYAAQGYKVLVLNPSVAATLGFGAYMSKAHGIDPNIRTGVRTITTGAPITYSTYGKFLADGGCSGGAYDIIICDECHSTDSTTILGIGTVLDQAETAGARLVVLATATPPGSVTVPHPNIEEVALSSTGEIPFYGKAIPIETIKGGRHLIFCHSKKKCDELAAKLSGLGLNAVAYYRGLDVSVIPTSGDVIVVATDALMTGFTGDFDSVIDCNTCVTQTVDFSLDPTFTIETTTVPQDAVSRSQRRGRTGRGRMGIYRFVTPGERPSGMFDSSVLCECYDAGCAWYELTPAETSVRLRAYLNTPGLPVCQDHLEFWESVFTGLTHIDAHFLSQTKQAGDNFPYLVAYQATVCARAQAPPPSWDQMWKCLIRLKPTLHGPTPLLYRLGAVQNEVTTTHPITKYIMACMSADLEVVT
T1 sequence (Q9WMX2 1658-1711): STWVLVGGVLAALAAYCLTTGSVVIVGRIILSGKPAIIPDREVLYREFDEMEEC

CC[C@@H]1C[C@]1(NC(=O)[C@@H]1C[C@@H](OC(=O)N2Cc3cccc(F)c3C2)CN1C(=O)[C@@H](Nc1cccc(COCC2(C)COC2)c1)C(C)(C)C)C(=O)NS(=O)(=O)C1CC1 [Compound 14]
pIC50 [1]: > 7.00
pEC50 [2]: 6.00 to 7.00

CC[C@@H]1C[C@]1(NC(=O)[C@@H]1C[C@@H](OC(=O)N2Cc3cccc(F)c3C2)CN1C(=O)[C@@H](Nc1ccc(F)c(C#N)c1)C(C)(C)C)C(=O)NS(=O)(=O)C1CC1 [Compound 15]
pIC50 [1]: > 7.00
pEC50 [2]: 6.00 to 7.00

CC[C@@H]1C[C@]1(NC(=O)[C@@H]1C[C@@H](OC(=O)N2Cc3cccc(F)c3C2)CN1C(=O)[C@@H](Nc1ccc(-n2cccn2)cc1)C(C)(C)C)C(=O)NS(=O)(=O)C1CC1 [Compound 16]
pIC50 [1]: > 7.00
pEC50 [2]: 6.00 to 7.00

CC[C@@H]1C[C@]1(NC(=O)[C@@H]1C[C@@H](OC(=O)N2Cc3cccc(F)c3C2)CN1C(=O)[C@@H](Nc1ccc(S(=O)(=O)N2CCNCC2)cc1)C(C)(C)C)C(=O)NS(=O)(=O)C1CC1 [Compound 17]
pIC50 [1]: > 7.00
pEC50 [2]: < 6.00

CC[C@@H]1C[C@]1(NC(=O)[C@@H]1C[C@@H](OC(=O)N2Cc3ccc(NC(=O)COCCOCCOC)cc3C2)CN1C(=O)[C@@H](Nc1cc(F)cc(C(F)(F)F)c1)C(C)(C)C)C(=O)NS(=O)(=O)C1CC1 [Compound 18]
pIC50 [1]: 6.00 to 7.00
pEC50 [2]: 6.00 to 7.00

CC[C@@H]1C[C@]1(NC(=O)[C@@H]1C[C@@H](OC(=O)N2Cc3ccc(NC(=O)COC)cc3C2)CN1C(=O)[C@@H](Nc1cc(F)cc(C(F)(F)F)c1)C(C)(C)C)C(=O)NS(=O)(=O)C1CC1 [Compound 19]
pIC50 [1]: > 7.00
pEC50 [2]: > 7.00

CC[C@@H]1C[C@]1(NC(=O)[C@@H]1C[C@@H](OC(=O)N2Cc3ccc(NC(=O)CN4CCOCC4)cc3C2)CN1C(=O)[C@@H](Nc1cc(F)cc(C(F)(F)F)c1)C(C)(C)C)C(=O)NS(=O)(=O)C1CC1 [Compound 20]
pIC50 [1]: > 7.00
pEC50 [2]: > 7.00

C=C[C@@H]1C[C@]1(NC(=O)[C@H]1Cc2cc(Oc3cccc(Cl)c3)ccc2CN1C(=O)[C@@H](Nc1cccc(C(F)(F)F)c1)C(C)(C)C)C(=O)NS(=O)(=O)C1(C)CC1 [Compound 22]
pIC50 [1]: > 7.00
pEC50 [2]: < 6.00

C=C[C@@H]1C[C@]1(NC(=O)[C@@H]1Cc2cc(Oc3cccc(Cl)c3)ccc2CN1C(=O)[C@@H](Nc1cccc(C(F)(F)F)c1)C(C)(C)C)C(=O)NS(=O)(=O)C1CC1 [Compound 23]
pIC50 [1]: > 7.00
pEC50 [2]: < 6.00

C=C[C@@H]1C[C@]1(NC(=O)[C@H]1Cc2cc(Oc3cccc(Cl)c3)ccc2CN1C(=O)[C@@H](Nc1cccc(C(F)(F)F)c1)C(C)(C)C)C(=O)NS(=O)(=O)C1CC1 [Compound 24]
pIC50 [1]: > 7.00
pEC50 [2]: < 6.00

CC[C@@H]1C[C@]1(NC(=O)[C@@H]1C[C@@H](Oc2cc(-c3ccccc3)nc3cc(OC)ccc23)CN1C(=O)[C@@H](Nc1cccc(C(F)(F)F)c1)C(C)(C)C)C(=O)NS(=O)(=O)C1(C)CC1 [Compound 230]
pIC50 [1]: > 7.00
pEC50 [2]: > 7.00

CC[C@@H]1C[C@]1(NC(=O)[C@@H]1C[C@@H](Oc2nc3ccccc3s2)CN1C(=O)[C@@H](Nc1cccc(C(F)(F)F)c1)C(C)(C)C)C(=O)NS(=O)(=O)C1(C)CC1 [Compound 231]
pIC50 [1]: > 7.00
pEC50 [2]: > 7.00

CC[C@@H]1C[C@]1(NC(=O)[C@@H]1C[C@@H](Oc2nc3ccccc3n2CC)CN1C(=O)[C@@H](Nc1cccc(C(F)(F)F)c1)C(C)(C)C)C(=O)NS(=O)(=O)C1(C)CC1 [Compound 232]
pIC50 [1]: > 7.00
pEC50 [2]: > 7.00

C=C[C@@H]1C[C@]1(NC(=O)[C@@H]1C[C@@H](Oc2cc(-c3ccccc3)nc3cc(OC)ccc23)CN1C(=O)[C@@H](Nc1cc(F)cc(C(F)(F)F)c1)C(C)(C)C)C(=O)NS(=O)(=O)C1(C)CC1 [Compound 281]
pIC50 [1]: > 7.00
pEC50 [2]: > 7.00

CC[C@@H]1C[C@]1(NC(=O)[C@@H]1C[C@@H](OC(=O)N2Cc3cccc(Cl)c3C2)CN1C(=O)[C@@H](Nc1cccc(C(F)(F)F)c1)C(C)(C)C)C(=O)NS(=O)(=O)C1(C)CC1 [Compound 282]
pIC50 [1]: > 7.00
pEC50 [2]: > 7.00

CC[C@@H]1C[C@]1(NC(=O)[C@@H]1C[C@@H](OC(=O)N2Cc3cccc(Cl)c3C2)CN1C(=O)[C@@H](Nc1cc(F)cc(C(F)(F)F)c1)C(C)(C)C)C(=O)NS(=O)(=O)C1(C)CC1 [Compound 283]
pIC50 [1]: > 7.00
pEC50 [2]: > 7.00

CC[C@@H]1C[C@]1(NC(=O)[C@@H]1C[C@@H](OC(=O)N2Cc3cccc(Cl)c3C2)CN1C(=O)[C@@H](Nc1ccc(F)c(C(F)(F)F)c1)C(C)(C)C)C(=O)NS(=O)(=O)C1(C)CC1 [Compound 284]
pIC50 [1]: > 7.00
pEC50 [2]: > 7.00

C=C[C@@H]1C[C@]1(NC(=O)[C@@H]1C[C@@H](Oc2nccc3ccccc23)CN1C(=O)[C@@H](Nc1cc(F)cc(C(F)(F)F)c1)C(C)(C)C)C(=O)NS(=O)(=O)C1(C)CC1 [Compound 287]
pIC50 [1]: > 7.00
pEC50 [2]: > 7.00
